# Experimental data: patent US20130123168A1, “HUMANIN AND HUMANIN-ANALOGUES FOR THE MANAGEMENT OF ATHEROSCLEROSIS” (The Regents of the University of California, priority 2011, published 2013)
# “Also recorded” adds a separate entry of the source.
# How the values were obtained:
# NIT cells = details: cited from earlier work
# [1] = system: atherosclerotic plaques in proximal aorta; assay: Morphometric analysis of plaque size in proximal aorta cross sections; type: in vivo, mice; details: IP 0.4 mg/kg/day, 16 weeks
# [2] = system: atherosclerotic plaque in the aortic arch; assay: TUNEL staining of apoptotic cells in plaques of the aortic arch; type: in vivo; details: Group 4: ApoE-deficient mice, high cholesterol diet
# Protocol: The effect of HNGF6A on mice was studied in 4 different animal groups (n=12 per group); Group 1: C57BL/6 feed normal diet+intraperitoneal (IP) saline, Group 2: C57BL/6 feed normal diet+IP HNGF6A, Group 3: ApoE-deficient feed high cholesterol diet+IP saline, and Group 4: ApoE-deficient feed high cholesterol diet+IP HNGF6A (Group 4). Experiment was conducted over the course of 16 weeks. Female C57BL/6 mice and Apo E-deficient mice were obtained at the age of 4 weeks from Jackson Laboratory Animals had free access to water, were maintained at 24° C., and kept at a 12 hr light/dark cycle. Depending on the study group, the mice were treated with a normal diet or high cholesterol diet (HC, 0.15% cholesterol and 42% milk fat by weight, TD88137 or “Western diet”; Harlan Teklad) and received intraperitoneal injection (IP) of saline or HNGF6A (glycine variant of HN, 0.4 mg/kg/day, Peptide International, Louisville, Ky.) for 16 weeks. […] Blood samples were collected by cardiac puncture. Terminal deoxynucleotidyl transferase dUTP nick end labeling (TUNEL) was performed using the in situ Apoptosis Detection Kit (S7100-KIT; Chemicon). The procedure was performed following the manufacturers' protocol. […] The number of positive cells in atherosclerotic plaque was counted using x400 magnification. […] Data was expressed as mean±SEM. […]
# [3] = system: human aortic endothelial cells (HAECs); assay: Ox-LDL induced ROS production, dihydroethidium (DHE) fluorescence; type: cell-based
# Protocol: Prior studies have reported that treatment of vascular endothelial cells with oxidized low density lipoprotein (LDL) stimulates reactive oxygen species (ROS) formation. To test whether humanin (HN) affects Ox-LDL induced ROS production in endothelial cells, the fluorescent probe dihydroethidium was utilized in order to detect superoxide in living cells. DHE fluorescence was measured in human aortic endothelial cells (HAECs) preincubated with HN and subsequently exposed to Ox-LDL. Intracellular ROS production was monitored by following the conversion of the oxidant sensitive dye dihydroethidine to fluorescent ethidium.
# To accomplish this, as described in Bachar et al. (2010) Cardiovasc. Res. 88(2):360-6 (incorporated by reference in its entirety). […] Fluorescent images were then taken with an inverted fluorescent microscope (Olympus IX70) at 15× magnification using appropriate filters fro ethidium fluorescence. Ten to twelve non-overlapping images in each culture dish were acquired and quantified by image analysis using Metamorph software (Molecular Devices). Only those cells whose fluorescence exceeded twice the basal level of fluorescence of non-treated cells were used for quantification of DHE fluorescence. Values are expressed as average relative fluorescence units for n≧100 cells per experimental condition in 2 independent experiments. […]
# [4] = system: human aortic endothelial cells (HAECs); assay: TUNEL assay of Ox-LDL induced apoptosis in HAEC; type: cell-based; details: pre-incubated overnight with 0.1 μM, then 100 μg/ml Ox-LDL for 6 hours
# Protocol: To accomplish this, a TUNEL assay was applied to measure the levels of apoptosis in HAECs treated with or without HN prior to exposure with Ox-LDL (FIG. 2). HAECs were plated on glass cover slips and incubated overnight with or without added HN (0.1 μM). The cells were then exposed to Ox-LDL (100 μg/ml; Biomedical Technologies Inc.) for 6 hours at 37° C. in the absence of HN. Apoptotic cells were quantified by TUNEL assay using the In Situ Death Detection Kit® (Roche Applied Science), mounted in SlowFade containing DAPI (Invitrogen) and observed by flourescent microscope. Apoptotic cells were defined based in morphological changes in the nuclei and the fluorescent intensity after TUNEL staining. The apoptotic index (AI)=(number of apoptotic cells)/(total number of cells)
# [5] = system: human aortic endothelial cells (HAECs); assay: Cellular ceramide levels by HPLC/MS/MS after Ox-LDL; type: cell-based; details: 0.1 μM overnight, then Ox-LDL 100 μg/ml for 6 hours
# Protocol: HAECs were plated on glass cover slips and incubated overnight with or without added HN (0.1 μM). The cells were then exposed to Ox-LDL (100 μg/ml; Biomedical Technologies Inc.) for 6 hours. Cells were then scraped into PBS, pelleted and frozen in liquid nitrogen. These samples were sent to MUSC-lipidomics core (Lipidomics Analytical Unit) for processing to detect and quantify individual ceramide species by HPLC/MS/MS.
substance,measurement,setting,value
F6AK21A-HNG: SEQ ID NO:17 MAPRGASCLLLLTGEIDLPVARRA (listed as Homo sapiens),potency compared to humanin in promoting survival and activating STAT-3 and ERK,NIT cells,even greater potency
"HNGF6A: HN analogue, SEQ ID NO:16 MAPRGASCLLLLTGEIDLPVKRRA (listed as Homo sapiens)",presence of plaque in aorta,"[1]; Group 2: C57BL/6 mice, normal diet, 0.4 mg/kg/day",Plaques were not visible; also recorded: no plaque was apparent
same,plaque size,"[1]; Group 4: ApoE-deficient mice, high cholesterol diet",0.01±0.003 mm^2
same,numbers of apoptotic cells in plaques compared to Group 3 (in words),[2]; IP,significantly decreased
same,number of apoptotic cells in plaques in the aortic arch,"[2]; IP 0.4 mg/kg/day, 16 weeks, mean±SEM",84±17 cells/mm^2
same,potency compared to humanin in promoting survival and activating STAT-3 and ERK,NIT cells,even greater potency
Z-FIN: SEQ ID NO:18 MAKRGLNCLPHQVSEIDLSVQKRI (listed as Homo sapiens),potency compared to humanin in promoting survival and activating STAT-3 and ERK,NIT cells,two-fold greater potency than humanin
humanin (MAPRGFSCLLLLTSEIDLPVKRRA; listed as Homo sapiens) [HN],decrease in ROS production,"[3]; HN pretreatment overnight prior to Ox-LDL (100 μg/ml, 30 min) exposure",approximately 50%
same,"decrease in Ox-LDL induced ROS formation, dose dependence",[3]; HN titration,dose-dependent manner
same,relative decrease in apoptosis compared to cells without pretreatment,[4],more than 50%
same,"total cellular amount of ceramides, including C16-ceramide",[5],decrease
